Drawing on patent US5075289A, “9-R-azacyclic erythromycin antibiotics” (priority 1988, dated 1991), this text covers MIC for three compounds.

Type in all cases: cell-based
In experiment [1] the test system is Staphylococcus aureus 45 RAR 2. Nature of the experiment: microbe, parasite or virus in culture. Conditions: 45RAR2. How it is done: (§1) The antimicrobial spectra of a number of compounds of the invention were tested by the following method:
(§2) Twelve petri dishes containing successive aqueous dilutions of the test compound mixed with 10 ml of sterilized Brain Heart Infusion agar (Difco 0418-01-5) are prepared. Each plate is inoculated with 1:100 (or 1:10 for slow growing strains, primarily Micrococcus and Streptococcus) dilutions of up to 32 different microorganisms, using a Steers replicator block The inoculated plates are incubated at 35°-37° C. for 20-24 hours. In addition, a control plate, using BHI agar containing no test compound, is prepared and incubated at the beginning and end of each test.
(§3) An additional plate containing a compound having known susceptibility patterns for the organisms being tested and belonging to the same antibiotic class as the test compound is also prepared and incubated as a further control, as well as to provide test-to-test comparability. Erythromycin A was used for this purpose.
(§4) After incubation, each disk is read. The MIC is defined as the lowest concentration of drug yielding no growth, a slight haze, or sparsely isolated colonies on the inoculum spot as compared to the growth control.

A further experiment concerns Escherichia coli H560. Nature of the experiment: In vitro antibacterial activity, agar dilution MIC. As to the method: as §1, §2, §3, §4
On the technique in general: In agar dilution the substance is mixed into plates at graded concentrations.

Another experiment has as its system Escherichia coli SS. Nature of the experiment: In vitro antibacterial activity, agar dilution MIC. As to the method: as §1, §2, §3, §4
The test system of the next experiment is Escherichia coli Juhl. Nature of the experiment: In vitro antibacterial activity, agar dilution MIC. How it is done:
as §1, §2, §3, §4

The subject of experiment [2] is Micrococcus luteus ATCC 4698. Nature of the experiment: In vitro antibacterial activity, agar dilution MIC. How it is done:
as §1, §2, §3, §4

The subject of the next experiment is Staphylococcus aureus 45. Description: In vitro antibacterial activity, agar dilution MIC. As to the method: as §1, §2, §3, §4
For experiment [3], the system named is Staphylococcus epidermidis 3519. Description: In vitro antibacterial activity, agar dilution MIC. As to the method:
as §1, §2, §3, §4

Experiment [4] has as its system Streptococcus pyogenes 2548 INDUC. Nature of the experiment: In vitro antibacterial activity, agar dilution MIC. How it is done: as §1, §2, §3, §4
For experiment [5], the system named is Staphylococcus aureus CMX 553. Nature of the experiment: In vitro antibacterial activity, agar dilution MIC. How it is done: as §1, §2, §3, §4
Experiment [6] relates to Staphylococcus aureus ATCC 6538P. Description: In vitro antibacterial activity, agar dilution MIC. Conditions: ATCC6538P. How it is done: as §1, §2, §3, §4
Another experiment has as its system Escherichia coli DC-2. Nature of the experiment: In vitro antibacterial activity, agar dilution MIC. Conditions: DC2. As to the method:
as §1, §2, §3, §4

The test system of experiment [7] is Streptococcus agalactiae CMX 508. Description: In vitro antibacterial activity, agar dilution MIC. As to the method:
as §1, §2, §3, §4

The test system of experiment [8] is Staphylococcus aureus 642A. Nature of the experiment: In vitro antibacterial activity, agar dilution MIC. How it is done:
as §1, §2, §3, §4

The test system of experiment [9] is Streptococcus bovis A5169. Nature of the experiment: In vitro antibacterial activity, agar dilution MIC. How it is done:
as §1, §2, §3, §4

Experiment [10] relates to Micrococcus luteus ATCC 9341. Description: In vitro antibacterial activity, agar dilution MIC. How it is done: as §1, §2, §3, §4
Experiment [11] concerns Staphylococcus aureus A5177. Description: In vitro antibacterial activity, agar dilution MIC. How it is done: as §1, §2, §3, §4
Experiment [12] deals with Enterococcus faecium ATCC 8043. Description: In vitro antibacterial activity, agar dilution MIC. As to the method: as §1, §2, §3, §4
Experiment [13] concerns Streptococcus pyogenes EES61. Nature of the experiment: In vitro antibacterial activity, agar dilution MIC. How it is done: as §1, §2, §3, §4
Experiment [14] concerns Streptococcus pyogenes 930 CONST. Nature of the experiment: In vitro antibacterial activity, agar dilution MIC. The following applies: 930CONST. How it is done: as §1, §2, §3, §4
Experiment [15] concerns Staphylococcus aureus NCTC 10649. Nature of the experiment: In vitro antibacterial activity, agar dilution MIC. As to the method:
as §1, §2, §3, §4

The subject of experiment [16] is Staphylococcus aureus CMX 503A. Nature of the experiment: In vitro antibacterial activity, agar dilution MIC. The following applies: CMX503A. As to the method:
as §1, §2, §3, §4

Where [17] appears, read: E. coli H560, Brain Heart Infusion agar, 20-24 hours, read-out: MIC.
Where [18] appears, read: S. pyogenes 2548 INDUC, Brain Heart Infusion agar, 20-24 hours, read-out: MIC.
Where [19] appears, read: CMX508, S. agalactiae CMX 508, Brain Heart Infusion agar, 20-24 hours, read-out: MIC.
Where [20] appears, read: S. bovis A5169, Brain Heart Infusion agar, 20-24 hours, read-out: MIC.
Where [21] appears, read: ATCC9341, M. luteus ATCC 9341, Brain Heart Infusion agar, 20-24 hours, read-out: MIC.
[22] abbreviates: S. aureus A5177, Brain Heart Infusion agar, 20-24 hours, read-out: MIC.
[23] abbreviates: S. pyogenes EES61, Brain Heart Infusion agar, 20-24 hours, read-out: MIC.

SMILES strings stand for the structures. ≈ marks a conversion by molar mass, not a printed value. Read-outs that look alike come from different tables or passages of the source. Where only a bound is given, the exact number is not on record here.

With `CC[C@H]1OC(=O)[C@H](C)[C@@H](O[C@H]2C[C@@](C)(OC)[C@@H](N)[C@H](C)O2)[C@H](C)[C@@H](O[C@@H]2O[C@H](C)C[C@H](N(C)C)[C@H]2O)[C@](C)(O)C[C@@H](C)[C@@H](N2CCOCC2)[C@H](C)[C@@H](O)[C@]1(C)O` [Example 33], the MIC turned out to be 0.78 µg/mL (≈ 0.97 µM) in experiment [1]; 3.1 µg/mL (≈ 3.86 µM) in the experiment on Escherichia coli H560 (setting [17]); 0.2 µg/mL (≈ 0.249 µM) in the experiment on Escherichia coli SS (read-out: MIC); 12.5 µg/mL (≈ 15.5 µM) in the experiment on Escherichia coli Juhl; 0.39 µg/mL (≈ 0.485 µM) in [2] (ATCC4698); 0.39 µg/mL (≈ 0.485 µM) in the experiment on Staphylococcus aureus 45 (45). The MIC worked out at 0.78 µg/mL (≈ 0.97 µM) in experiment [3] (S. epidermidis 3519, Brain Heart Infusion agar, 20-24 hours, read-out: MIC); 50 µg/mL (≈ 62.2 µM) in [4] (setting [18]); 0.78 µg/mL (≈ 0.97 µM) in [5] (CMX553, S. aureus CMX 553, Brain Heart Infusion agar, 20-24 hours, read-out: MIC); 0.78 µg/mL (≈ 0.97 µM) in [6] (S. aureus ATCC 6538P, Brain Heart Infusion agar, 35-37° C., 20-24 hours, read-out: MIC); 6.2 µg/mL (≈ 7.71 µM) in the experiment on Escherichia coli DC-2; 0.1 µg/mL (≈ 0.124 µM) in [7] (setting [19]). The MIC is 0.78 µg/mL (≈ 0.97 µM) in experiment [8] (S. aureus 642A, Brain Heart Infusion agar, 20-24 hours, read-out: MIC); 0.05 µg/mL (≈ 0.0622 µM) in experiment [9] (setting [20]); 0.05 µg/mL (≈ 0.0622 µM) in [10] (setting [21]); 6.2 µg/mL (≈ 7.71 µM) in experiment [11] (setting [22]); 0.2 µg/mL (≈ 0.249 µM) in experiment [12] (ATCC8043, read-out: MIC); 0.1 µg/mL (≈ 0.124 µM) in experiment [13] (setting [23]). For the same compound, the MIC in experiment [14] was > 100 µg/mL; in experiment [15] (NCTC10649, S. aureus NCTC 10649, Brain Heart Infusion agar, 20-24 hours, read-out: MIC), 0.78 µg/mL (≈ 0.97 µM).
As to `CC[C@H]1OC(=O)[C@H](C)[C@@H](O[C@H]2C[C@@](C)(OC)[C@@H](O)[C@H](C)O2)[C@H](C)[C@@H](O[C@@H]2O[C@H](C)C[C@H](N(C)C)[C@H]2O)[C@](C)(O)C[C@@H](C)[C@@H](N2CCCCCC2)[C@H](C)[C@@H](O)[C@]1(C)O` [Example 2], the MIC in [1] is 0.39 µg/mL (≈ 0.477 µM); with Escherichia coli H560 (setting [17]), 3.1 µg/mL (≈ 3.79 µM); in the experiment on Escherichia coli SS (E. coli SS, Brain Heart Infusion agar, 20-24 hours, read-out: MIC), 0.1 µg/mL (≈ 0.122 µM); in the experiment with Escherichia coli Juhl (E. coli Juhl, Brain Heart Infusion agar, 20-24 hours, read-out: MIC), 0.1 µg/mL (≈ 0.122 µM); in experiment [2] (ATCC4698, M. luteus ATCC 4698, Brain Heart Infusion agar, 20-24 hours, read-out: MIC), 0.1 µg/mL (≈ 0.122 µM); in the experiment on Staphylococcus aureus 45 (S. aureus 45, Brain Heart Infusion agar, 20-24 hours, read-out: MIC), 0.2 µg/mL (≈ 0.245 µM). For the same compound, the MIC in experiment [3] (3519) stood at 0.39 µg/mL (≈ 0.477 µM); in experiment [4] (setting [18]) it was 12.5 µg/mL (≈ 15.3 µM); in experiment [5] (CMX553), 0.39 µg/mL (≈ 0.477 µM); in experiment [6], 0.39 µg/mL (≈ 0.477 µM); against Escherichia coli DC-2, 12.5 µg/mL (≈ 15.3 µM); in [7] (setting [19]) it was 0.05 µg/mL (≈ 0.0612 µM). The MIC is 0.39 µg/mL (≈ 0.477 µM) in experiment [8] (642A); 0.02 µg/mL (≈ 0.0245 µM) in experiment [9] (setting [20]); 0.005 µg/mL (≈ 0.00612 µM) in experiment [10] (setting [21]); 0.31 µg/mL (≈ 0.379 µM) in [11] (setting [22]); 0.02 µg/mL (≈ 0.0245 µM) in experiment [12] (ATCC8043, E. faecium ATCC 8043, Brain Heart Infusion agar, 20-24 hours, read-out: MIC); 0.05 µg/mL (≈ 0.0612 µM) in experiment [13] (setting [23]). Also, the MIC was 0.39 µg/mL (≈ 0.477 µM) in experiment [16], > 100 µg/mL in experiment [14] and 0.39 µg/mL (≈ 0.477 µM) in experiment [15] (NCTC10649).
With `CC[C@H]1OC(=O)[C@H](C)[C@@H](O[C@H]2C[C@@](C)(OC)[C@@H](O)[C@H](C)O2)[C@H](C)[C@@H](O[C@@H]2O[C@H](C)C[C@H](N(C)C)[C@H]2O)[C@](C)(O)C[C@@H](C)[C@@H](N2CC2)[C@H](C)[C@@H](O)[C@]1(C)O` [Example 4], the MIC in experiment [1] was 1.56 µg/mL (≈ 2.05 µM); in the experiment on Escherichia coli H560 (H560) it was 25 µg/mL (≈ 32.9 µM); in the experiment on Escherichia coli SS, 0.78 µg/mL (≈ 1.02 µM); against Escherichia coli Juhl it was > 100 µg/mL; in experiment [2] (ATCC4698), 0.78 µg/mL (≈ 1.02 µM); against Staphylococcus aureus 45 (45) it was 0.78 µg/mL (≈ 1.02 µM). For the same compound, the MIC is 1.56 µg/mL (≈ 2.05 µM) in experiment [3] (3519); 12.5 µg/mL (≈ 16.4 µM) in experiment [4] (2548INDUC); 1.56 µg/mL (≈ 2.05 µM) in experiment [5] (CMX553); 1.56 µg/mL (≈ 2.05 µM) in [6]; 100 µg/mL (≈ 131 µM) in the experiment on Escherichia coli DC-2; 0.2 µg/mL (≈ 0.263 µM) in experiment [7] (CMX508). Also, the MIC in [8] (642A) was 1.56 µg/mL (≈ 2.05 µM); in experiment [9], 0.1 µg/mL (≈ 0.131 µM); in experiment [10] (ATCC9341) it was 0.1 µg/mL (≈ 0.131 µM); in experiment [11] (A5177) it was 6.2 µg/mL (≈ 8.15 µM); in experiment [12] (ATCC8043), 0.2 µg/mL (≈ 0.263 µM); in experiment [13] (EES61) it was 0.2 µg/mL (≈ 0.263 µM). The MIC in experiment [14] is > 100 µg/mL; in [15] (NCTC10649), 1.56 µg/mL (≈ 2.05 µM).
